Results as given in ChEMBL document CHEMBL1201862, “PubChem BioAssay data set” (2004).
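Briefly, cells in 96-well plates were exposed to five compound concentrations for 48 h, and endpoints were estimated by linear interpolation. GI50 is the concentration that inhibits growth by half.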 The source made the active and inactive calls. Rule as the data show it: active = GI50 up to about 1.1 µM and inactive = higher.

Assays:
Test in all cases: NCI anticancer screen, dose series, 48 h
SK-OV-3 = test system: SK-OV-3
UACC-257 = test system: UACC-257
HOP-62 = test system: HOP-62
NCI-H522 = test system: NCI-H522
SF-539 = test system: SF-539
A549 = test system: A549
OVCAR-3 = test system: OVCAR-3
IGROV-1 = test system: IGROV-1
ACHN = test system: ACHN
Malme-3M = test system: Malme-3M
NCI-H23 = test system: NCI-H23
MOLT-4 = test system: MOLT-4
OVCAR-8 = test system: OVCAR-8
786-0 = test system: 786-0
SK-MEL-5 = test system: SK-MEL-5
MDA-N = test system: MDA-N
SNB-75 = test system: SNB-75
U-251 = test system: U-251
SK-MEL-28 = test system: SK-MEL-28

Measured: GI50

CN1C(=O)C(=CNc2ccccc2[N+](=O)[O-])C(=O)N(C)C1=O
inactive: SK-OV-3 > 100 µM | UACC-257 > 100 µM | HOP-62 > 100 µM | NCI-H522 > 100 µM | SF-539 > 100 µM | A549 > 100 µM | OVCAR-3 > 100 µM | IGROV-1 > 100 µM | ACHN > 100 µM | Malme-3M > 100 µM | NCI-H23 > 100 µM | MOLT-4 > 100 µM | OVCAR-8 > 100 µM | 786-0 > 100 µM | SK-MEL-5 > 100 µM | MDA-N > 100 µM | SNB-75 > 100 µM | U-251 > 100 µM

COc1cc2c(cc1OC)-c1cc3cc(OC)c(OC)cc3c(=O)n1CC2
inactive: SK-OV-3 14.1 µM | UACC-257 26.1 µM | HOP-62 6.5 µM | NCI-H522 2.76 µM | SF-539 6.12 µM | A549 41.2 µM | OVCAR-3 15.7 µM | IGROV-1 4.91 µM | ACHN 14.4 µM | Malme-3M 8.04 µM | SK-MEL-28 > 62.1 µM | NCI-H23 46.5 µM | MOLT-4 3.51 µM | OVCAR-8 41.9 µM | 786-0 23.3 µM | SK-MEL-5 4.41 µM | MDA-N 67.9 µM | SNB-75 9.4 µM | U-251 17.3 µM

CC(C)(C)OC(=O)[C@@H]1CCC(=S)N1Cc1ccccc1
inactive: SK-OV-3 > 100 µM | UACC-257 > 100 µM | NCI-H522 > 100 µM | SF-539 > 100 µM | A549 > 100 µM | OVCAR-3 > 100 µM | IGROV-1 > 100 µM | ACHN > 100 µM | Malme-3M > 100 µM | SK-MEL-28 > 100 µM | NCI-H23 70.1 µM | MOLT-4 93.1 µM | OVCAR-8 > 100 µM | 786-0 > 100 µM | SK-MEL-5 47.4 µM | MDA-N > 100 µM | SNB-75 37.8 µM | U-251 > 100 µM

COc1cccc(/N=C/c2cc3cc(Br)ccc3nc2Cl)c1
inactive: SK-OV-3 15.2 µM | UACC-257 44.5 µM | HOP-62 41.4 µM | NCI-H522 8.43 µM | SF-539 13.1 µM | A549 > 50 µM | OVCAR-3 34.4 µM | IGROV-1 12.6 µM | Malme-3M > 50 µM | SK-MEL-28 > 50 µM | NCI-H23 22.1 µM | MOLT-4 7.05 µM | OVCAR-8 2.95 µM | 786-0 2.91 µM | SK-MEL-5 36.1 µM | MDA-N 13.6 µM | SNB-75 17.1 µM

O=C(C1OC1c1ccc(Br)cc1O)C12CC3CC(CC(C3)C1)C2 (configuration not stated)
inactive: UACC-257 29 µM | HOP-62 26.2 µM | NCI-H522 18.8 µM | SF-539 95.1 µM | A549 37.8 µM | OVCAR-3 31.5 µM | IGROV-1 32 µM | ACHN 33.9 µM | Malme-3M 20 µM | SK-MEL-28 19.4 µM | NCI-H23 19.2 µM | MOLT-4 16.1 µM | OVCAR-8 20.5 µM | 786-0 17.6 µM | SK-MEL-5 19.5 µM | MDA-N 17 µM | SNB-75 14.5 µM | U-251 15.7 µM

CCOC(=O)CCC1(CCC(=O)OCC)CCCCCCCCC(CCC(=O)OCC)(CCC(=O)OCC)C(=O)C1=O
inactive: SK-OV-3 > 100 µM | UACC-257 > 100 µM | HOP-62 > 100 µM | NCI-H522 35.5 µM | SF-539 > 100 µM | A549 > 100 µM | OVCAR-3 > 100 µM | IGROV-1 > 100 µM | ACHN > 100 µM | Malme-3M > 100 µM | SK-MEL-28 > 100 µM | NCI-H23 > 100 µM | OVCAR-8 > 100 µM | 786-0 > 100 µM | SK-MEL-5 > 100 µM | MDA-N > 100 µM | SNB-75 82.8 µM | U-251 > 100 µM

CC/C(Cl)=N\OC(=O)Nc1ccc(F)cc1F
inactive: SK-OV-3 19.3 µM | UACC-257 17.3 µM | HOP-62 21 µM | NCI-H522 1.54 µM | SF-539 7.01 µM | A549 19.9 µM | OVCAR-3 17 µM | IGROV-1 15.9 µM | ACHN 1.89 µM | Malme-3M 2.9 µM | SK-MEL-28 17.7 µM | NCI-H23 20 µM | MOLT-4 1.55 µM | OVCAR-8 19.8 µM | 786-0 4.38 µM | SK-MEL-5 6.12 µM | MDA-N 5.87 µM | SNB-75 20.6 µM | U-251 22.4 µM

CCc1n[nH]c(=O)n1-c1ccncc1
inactive: UACC-257 > 100 µM | HOP-62 > 100 µM | NCI-H522 > 100 µM | SF-539 > 100 µM | A549 > 100 µM | OVCAR-3 > 100 µM | IGROV-1 > 100 µM | ACHN > 100 µM | Malme-3M > 100 µM | SK-MEL-28 > 100 µM | NCI-H23 > 100 µM | MOLT-4 > 100 µM | OVCAR-8 > 100 µM | 786-0 > 100 µM | SK-MEL-5 > 100 µM | MDA-N > 100 µM | SNB-75 > 100 µM | U-251 > 100 µM

N=C(N)c1ccc(/N=N\c2c(O)ccc3c2[nH]c2ccccc23)cc1
inactive: SK-OV-3 25.2 µM | UACC-257 45.4 µM | HOP-62 13.6 µM | NCI-H522 > 53.2 µM | SF-539 > 49.5 µM | A549 2.34 µM | OVCAR-3 2.1 µM | IGROV-1 49.8 µM | ACHN 41.6 µM | Malme-3M > 47.3 µM | SK-MEL-28 18.8 µM | NCI-H23 10.2 µM | MOLT-4 2.23 µM | OVCAR-8 2.46 µM | 786-0 1.69 µM | SK-MEL-5 37.8 µM | MDA-N 6.3 µM | SNB-75 8.38 µM | U-251 1.95 µM

Cc1ccc(N(C)S(=O)(=O)c2ccc([N+](=O)[O-])cc2)cc1
inactive: SK-OV-3 > 100 µM | UACC-257 > 100 µM | HOP-62 > 100 µM | NCI-H522 > 100 µM | SF-539 > 100 µM | A549 > 100 µM | OVCAR-3 > 100 µM | IGROV-1 > 100 µM | ACHN > 100 µM | Malme-3M 38.2 µM | SK-MEL-28 > 100 µM | MOLT-4 34.9 µM | OVCAR-8 > 100 µM | 786-0 > 100 µM | SK-MEL-5 > 10 µM | MDA-N > 100 µM | SNB-75 > 100 µM | U-251 > 100 µM

CCN(CC)CCC1(C(=O)OC)SCCc2ccc(C)cc21 (configuration not stated)
inactive: SK-OV-3 > 100 µM | UACC-257 > 100 µM | HOP-62 > 100 µM | NCI-H522 > 100 µM | SF-539 > 100 µM | A549 > 100 µM | OVCAR-3 > 100 µM | IGROV-1 > 100 µM | ACHN > 100 µM | Malme-3M > 100 µM | SK-MEL-28 > 100 µM | NCI-H23 > 100 µM | MOLT-4 > 100 µM | OVCAR-8 > 100 µM | 786-0 > 100 µM | SK-MEL-5 > 100 µM | MDA-N > 100 µM | SNB-75 63.2 µM | U-251 > 100 µM

CC(C)(O)C1OCC(C2CCC3(C)C4=CCC5C(C)(C)C(O)CCC5(C)C4CCC23C)CC1O (configuration not stated)
inactive: SK-OV-3 15.8 µM | UACC-257 18.4 µM | NCI-H522 11.5 µM | SF-539 13.6 µM | A549 14.1 µM | OVCAR-3 17.1 µM | IGROV-1 17.3 µM | ACHN 15.3 µM | Malme-3M 18.5 µM | SK-MEL-28 15.8 µM | NCI-H23 23.2 µM | MOLT-4 10.8 µM | OVCAR-8 14.4 µM | 786-0 14.2 µM | SK-MEL-5 14.7 µM | MDA-N 16.6 µM | SNB-75 16.9 µM | U-251 14.4 µM

O=C(c1ccc(Br)cc1)n1c2ccc(Br)cc2c2nc3ccccc3nc21
inactive: UACC-257 > 100 µM | HOP-62 > 100 µM | NCI-H522 > 100 µM | SF-539 > 100 µM | OVCAR-3 > 100 µM | IGROV-1 > 100 µM | ACHN > 100 µM | Malme-3M > 100 µM | SK-MEL-28 > 100 µM | NCI-H23 > 100 µM | MOLT-4 43.9 µM | OVCAR-8 > 100 µM | 786-0 > 100 µM | SK-MEL-5 > 100 µM | MDA-N > 100 µM | SNB-75 76.7 µM | U-251 > 100 µM

[N-]=[N+]=NC1=NNC2(C(=O)N1)c1ccccc1-c1ccccc12
inactive: SK-OV-3 > 100 µM | UACC-257 > 100 µM | HOP-62 > 100 µM | NCI-H522 > 100 µM | SF-539 > 100 µM | A549 > 100 µM | OVCAR-3 > 100 µM | IGROV-1 > 100 µM | ACHN > 100 µM | Malme-3M 18.1 µM | SK-MEL-28 > 100 µM | NCI-H23 > 100 µM | OVCAR-8 > 100 µM | 786-0 > 100 µM | SK-MEL-5 > 100 µM | MDA-N > 100 µM | SNB-75 > 100 µM | U-251 > 100 µM

CC(C)=C[C@@H]1C[C@H](n2cc(C)c(=O)[nH]c2=O)ON1CCO
inactive: SK-OV-3 > 100 µM | UACC-257 > 100 µM | HOP-62 > 100 µM | NCI-H522 > 100 µM | SF-539 > 100 µM | A549 > 100 µM | OVCAR-3 > 100 µM | IGROV-1 > 100 µM | ACHN > 100 µM | Malme-3M > 100 µM | SK-MEL-28 > 100 µM | MOLT-4 > 100 µM | OVCAR-8 > 100 µM | 786-0 > 100 µM | SK-MEL-5 > 100 µM | MDA-N > 100 µM | SNB-75 > 100 µM | U-251 > 100 µM
